Values of other authors, collected in patent US4377591A, “7-Oxo-1-azabicyclo[3.2.0]hept-2-ene-2-carboxylic acid derivatives, their use and preparation” (Sankyo Company, Limited, priority 1980, dated 1983).

Tested on: bacteria
Settings: Japanese Patent Application Kokai No. 73191/76

For C[C@@H](O)[C@H]1C(=O)N2C(C(=O)O)=C(SCCN)C[C@H]12 [thienamycin, (5R,6S)-3-(2-aminoethylthio)-6-[1-(R)-hydroxyethyl]-7-oxo-1-azabicyclo[3.2.0]hept-2-ene-2-carboxylic acid], the “antibacterial activity (in words)” value is listed as “extraordinarily potent antibacterial activity”.
